# Laboratory results taken from PubChem BioAssay (NCI).
#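 In this assay, cells in 96-well plates receive the compound at five concentrations for 48 hours. Endpoints are linearly interpolated between the surrounding concentrations. Definition used: TGI = concentration required for complete inhibition of growth.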
# Columns and labels:
# Test in all cases: NCI anticancer screen, dose series, 48 h
# [1] = tested on: 786-0 renal
# [2] = tested on: NCI-H460 lung
# [3] = tested on: MCF7 breast
# [4] = tested on: SF-539 CNS
# [5] = tested on: OVCAR-5 ovarian
# [6] = tested on: HCT-15 colon
# [7] = tested on: DU-145 prostate
# [8] = tested on: SF-295 CNS
# [9] = tested on: SR leukemia
# [10] = tested on: KM12 colon
# [11] = tested on: MALME-3M melanoma
# [12] = tested on: UO-31 renal
# [13] = tested on: OVCAR-3 ovarian
# [14] = tested on: OVCAR-8 ovarian
# [15] = tested on: MDA-N
# [16] = tested on: RXF 393 renal
# [17] = tested on: MDA-MB-231 breast
# [18] = tested on: NCI/ADR-RES ovarian
# [19] = tested on: OVCAR-4 ovarian
# [20] = tested on: SN12C renal
# [21] = tested on: TK-10 renal
# [22] = tested on: CCRF-CEM leukemia
# [23] = tested on: SNB-75 CNS
# [24] = tested on: COLO 205 colon
# [25] = tested on: A549 NSCLC
# [26] = tested on: ACHN renal
# [27] = tested on: NCI-H226 lung
# [28] = tested on: LOX IMVI melanoma
# [29] = tested on: SK-MEL-5 melanoma
# [30] = tested on: PC-3 prostate
# [31] = tested on: UACC-257 melanoma
# [32] = tested on: M14 melanoma
# [33] = tested on: U251 CNS
# [34] = tested on: HOP-62 NSCLC
# [35] = tested on: SW-620 colon
# [36] = tested on: HL-60(TB) leukemia
# [37] = tested on: EKVX NSCLC
# [38] = tested on: K-562 leukemia
# [39] = tested on: SK-OV-3 ovarian
# [40] = tested on: CAKI-1 renal
# [41] = tested on: SF-268 CNS
# [42] = tested on: HCT-116 colon
# [43] = tested on: NCI-H522 lung
# [44] = tested on: BT-549 breast
# [45] = tested on: MOLT-4 leukemia
# [46] = tested on: NCI-H23 lung
# [47] = tested on: RPMI-8226 leukemia
# [48] = tested on: IGROV1 ovarian
# [49] = tested on: SK-MEL-2 melanoma
# [50] = tested on: MDA-MB-435
# [51] = tested on: HOP-92 NSCLC
# [52] = tested on: T-47D breast
# [53] = tested on: UACC-62 melanoma
# [54] = tested on: HT29 colon
smiles,measurement,setting,value
Cc1c(N2C(=O)/C(=C/C=C/c3ccccc3)N=C2c2ccccc2)c(=O)n(-c2ccccc2)n1C,TGI,[1],> 100 µM
same,TGI,[2],> 100 µM
same,TGI,[3],> 100 µM
same,TGI,[4],47.1 µM
same,TGI,[5],51.7 µM
same,TGI,[6],21 µM
same,TGI,[7],> 100 µM
same,TGI,[8],40 µM
same,TGI,[9],47.1 µM
same,TGI,[10],80.3 µM
same,TGI,[11],92.2 µM
same,TGI,[12],32.6 µM
same,TGI,[13],46.6 µM
same,TGI,[14],77.6 µM
same,TGI,[15],38.3 µM
same,TGI,[16],33.2 µM
same,TGI,[17],47.3 µM
same,TGI,[18],55 µM
same,TGI,[19],50.3 µM
same,TGI,[20],69 µM
same,TGI,[21],> 100 µM
same,TGI,[22],99.2 µM
same,TGI,[23],32.1 µM
same,TGI,[24],30.3 µM
same,TGI,[25],69.8 µM
same,TGI,[26],34.1 µM
same,TGI,[27],58.4 µM
same,TGI,[28],52 µM
same,TGI,[29],30.8 µM
same,TGI,[30],76.9 µM
same,TGI,[31],42.1 µM
same,TGI,[32],> 100 µM
same,TGI,[33],33 µM
same,TGI,[34],85.3 µM
same,TGI,[35],99.4 µM
same,TGI,[36],35.7 µM
same,TGI,[37],36.5 µM
same,TGI,[38],75 µM
same,TGI,[39],66.9 µM
same,TGI,[40],> 100 µM
same,TGI,[41],68.9 µM
same,TGI,[42],> 100 µM
same,TGI,[43],32.6 µM
same,TGI,[44],40.2 µM
same,TGI,[45],78.8 µM
same,TGI,[46],61.1 µM
same,TGI,[47],47.6 µM
same,TGI,[48],35.5 µM
same,TGI,[49],44.5 µM
same,TGI,[50],33.1 µM
same,TGI,[51],51.3 µM
same,TGI,[52],> 100 µM
same,TGI,[53],32 µM
same,TGI,[54],54 µM
